Data: patent EP3431490B1, “CHEMICAL COMPOUNDS FOR USE AS DIAGNOSTIC MARKERS OF INFLAMMATION AND NEOPLAMS, THE METHOD FOR SYNTHESIS OF THE CHEMICAL COMPOUNDS, DIAGNOSTIC KIT FOR USE IN DIAGNOSIS OF INFLAMMATORY PROCESSES AND EPITHELIAL NEOPLASMS AND IN VITRO DIAGNOSTIC METHOD OF INFLAMMATORY PROCESSES AND EPITHELIAL NEOPLASMS” (Uniwersytet Gdanski, priority 2017, dated 2019)

Tested on: proteolytic enzymes in combined urine samples of patients (urothelial epithelial neoplasms)
Experiment: Effect of protease inhibitors on hydrolysis of ABZ-Leu-Glu-Pro-Val-ANB-NH2 in combined urine samples of patients
Type: biochemical, human
Settings: inhibitor concentrations as in Table 1; fig. 3
Method: Proteolytic activity is dependent on the presence of specific compounds called inhibitors (proteolytic enzymes). Their incubation with a given biological material allows us to pre-determine the class of enzymes present in the tested samples. For this purpose, we have added effective inhibitory concentrations of certain classes of proteolytic enzymes to the combined urine samples of the ill persons - patients (urothelial epithelial neoplasms, in particular tumor).

Question: AHX-VYDnV^P(C4H2Cl)2 was tested. Which “inhibition of hydrolysis of ABZ-Leu-Glu-Pro-Val-ANB-NH2” value did it give?
Answer: complete inhibition of hydrolysis
